Measured values reported in patent US11993574B2, “Pyrazole and imidazole compounds for inhibition of IL-17 and RORgamma” (REATA PHARMACEUTICALS, INC., priority 2018, dated 2024).

How the values were obtained:
Assay type in all cases: cell-based
[1] = tested on: Nrf2 transcription factor; assay: AREc32 luciferase reporter assay; conditions: Homo sapiens; AREc32 cells, 19 hours; concentration required to increase GST ARE luciferase reporter activity by 2-fold; read-out: NRF2 ARE 2-Fold (EC2×)
Outline: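 AREc32 cells (MCF-7 with firefly luciferase under eight rat GSTA2 ARE copies) treated 19 h with compound (0.4-200 nM or 3.9-2000 nM) in triplicate. Luminescence normalized to DMSO as fold-induction, capped at 50-fold. EC2× = concentration giving 2-fold reporter increase, interpolated from variable-slope fit.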

[2] = biological target: T1, Human RAR-related Orphan Receptor Gamma (RORγ) (Homo sapiens, UniProt P51449); assay: RORγ assay (GAL4-RORγ hybrid luciferase reporter, Indigo Biosciences); conditions: inverse-agonist activity, GAL4-RORγ reporter cells, 23 hours
T1 sequence (P51449 269-508 limits assumed): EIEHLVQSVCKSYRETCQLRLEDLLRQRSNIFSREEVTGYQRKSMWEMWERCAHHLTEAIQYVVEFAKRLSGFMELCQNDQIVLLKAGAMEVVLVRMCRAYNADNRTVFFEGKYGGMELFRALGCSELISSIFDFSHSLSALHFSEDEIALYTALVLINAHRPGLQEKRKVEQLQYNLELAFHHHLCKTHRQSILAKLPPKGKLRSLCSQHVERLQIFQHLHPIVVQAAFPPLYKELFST
Outline: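 […]engineered human reporter cell line expressing GAL4-DBD/RORγ-LBD hybrid with GAL4-UAS luciferase; constitutive activity measured as inverse agonism. Cells treated with compound (7.8-2000 nM) for 23 h at 37 °C; luminescence normalized to DMSO, IC50 by variable-slope fit, with parallel viability readout to flag non-specific inhibition.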

[3] = tested on: IL-17A; assay: IL-17 release from differentiated primary human T-cells (IL-17A HTRF assay); conditions: primary human CD4+ T cells differentiated into Th17 cells, 45-hour incubation, IL-17A in supernatant; read-out: hIL17 IC50
Outline: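 Primary human CD4+ T cells (~2×10^5/well) given compound (2–500 or 4–1000 nM, 0.1% DMSO), CD3/CD28-activated and Th17-differentiated (TGF-β, IL-6, IL-23, IL-1β) for 45 h at 37° C. Supernatant IL-17A by HTRF against standard curve, normalized to vehicle; IC50 by variable-slope regression, with parallel CyQuant viability.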

| SMILES | IC50 [2] | IC50 [3] | EC (2-fold) [1] |
| --- | --- | --- | --- |
| Cc1ccccc1-c1nn(-c2ccc(-c3ccccc3)cc2)c2c1CC[C@@H]1[C@@H](C)C(=O)C(C#N)=C[C@@]21C [T72] | 138 nM | 10 nM | 0.205 µM |
| C[C@H]1C(=O)C(C#N)=C[C@@]2(C)c3c(c(-c4ccc(CO)cc4)nn3-c3ccc(-c4ccccc4)cc3)CC[C@H]12 [T73] | 40 nM | 30 nM | 0.159 µM |
| C[C@H]1C(=O)C(C#N)=C[C@@]2(C)c3c(c(-c4ccc(CF)cc4)nn3-c3ccc(-c4ccccc4)cc3)CC[C@H]12 [T74] | 111 nM | 16 nM | 0.182 µM |
| C[C@H]1C(=O)C(C#N)=C[C@@]2(C)c3c(c(C4CC4)nn3-c3ccc(-c4ccccc4)cc3)CC[C@H]12 [T75] | 68 nM | 130 nM | 0.248 µM |
| C[C@H]1C(=O)C(C#N)=C[C@@]2(C)c3c(c(C4CCCCC4)nn3-c3ccc(-c4ccccc4)cc3)CC[C@H]12 [T76] | 73 nM | 30 nM | 0.465 µM |
| C[C@H]1C(=O)C(C#N)=C[C@@]2(C)c3c(c(N4CCOCC4)nn3-c3ccc(-c4ccccc4)cc3)CC[C@H]12 [T77] | 111 nM | 68 nM | 0.908 µM |
| C[C@H]1C(=O)C(C#N)=C[C@@]2(C)c3c(c(NC4CCC4)nn3-c3ccc(-c4ccccc4)cc3)CC[C@H]12 [T78] | 62 nM | 48 nM | 0.534 µM |
| CNc1nn(-c2ccc(-c3ccccc3)cc2)c2c1CC[C@@H]1[C@@H](C)C(=O)C(C#N)=C[C@@]21C [T79] | 140 nM | 178 nM | 1.04 µM |
| C[C@H]1C(=O)C(C#N)=C[C@@]2(C)c3c(c(N(C)C4CCC4)nn3-c3ccc(-c4ccccc4)cc3)CC[C@H]12 [T80] | 71 nM | 17 nM | 0.347 µM |
| C[C@H]1C(=O)C(C#N)=C[C@@]2(C)c3c(c(-c4ccccn4)nn3-c3ccc(-c4ccccc4)cc3)CC[C@H]12 [T81] | 67 nM | 30 nM | 0.243 µM |
| C[C@H]1C(=O)C(C#N)=C[C@@]2(C)c3c(c(-c4ccccc4F)nn3-c3ccc(-c4cncnc4)cc3)CC[C@H]12 [T82] | 44 nM | 63 nM | 0.208 µM |
| Cc1cc(-c2ccc(-n3nc(-c4ccccc4F)c4c3[C@]3(C)C=C(C#N)C(=O)[C@H](C)[C@H]3CC4)cc2)cnn1 [T83] | 33 nM | 20 nM | 0.139 µM |
| C[C@H]1C(=O)C(C#N)=C[C@@]2(C)c3c(c(-c4ccccc4F)nn3-c3ccc(-c4ccncc4)cc3)CC[C@H]12 [T84] | 23 nM | 33 nM | 0.121 µM |
| C[C@H]1C(=O)C(C#N)=C[C@@]2(C)c3c(c(-c4ccccc4F)nn3-c3ccc(N4CCOCC4)cc3)CC[C@H]12 [T85] | 50 nM | 46 nM | 0.079 µM |
| C[C@H]1C(=O)C(C#N)=C[C@@]2(C)c3c(c(-c4ccccc4F)nn3-c3nnc(-c4ccccc4)n3C)CC[C@H]12 [T86] | 351 nM | 88 nM | 1.48 µM |
| C[C@H]1C(=O)C(C#N)=C[C@@]2(C)c3c(c(-c4ccccc4F)nn3-c3nc(-c4ccccc4)cs3)CC[C@H]12 [T87] | 685 nM | 27 nM | 1.26 µM |
| C[C@H]1C(=O)C(C#N)=C[C@@]2(C)c3c(c(-c4ccccc4F)nn3-c3nc4cc(C(F)(F)F)ccc4s3)CC[C@H]12 [T88] | 219 nM | 11 nM | 0.743 µM |

More lines, main results first:

| IC50 [2] | IC50 [3] | SMILES | EC (2-fold) [1] |
| --- | --- | --- | --- |
| 251 nM | 13 nM | C[C@H]1C(=O)C(C#N)=C[C@@]2(C)c3c(c(-c4ccccc4F)nn3-c3nc4ccc(Cl)cc4s3)CC[C@H]12 [T89] | 0.482 µM |
| 135 nM | 57 nM | C[C@H]1C(=O)C(C#N)=C[C@@]2(C)c3c(c(-c4ccccc4F)nn3-c3nc4ccccc4n3C)CC[C@H]12 [T90] | 1.31 µM |
| > 2000 nM | > 500 nM | C[C@H]1C(=O)C(C#N)=C[C@@]2(C)c3c(c(-c4ccccc4F)nn3-c3nc4ccccc4[nH]3)CC[C@H]12 [T91] | > 2 µM |
| 340 nM | 28 nM | C[C@H]1C(=O)C(C#N)=C[C@@]2(C)c3c(c(-c4ccccc4F)nn3-c3nc4ccccc4s3)CC[C@H]12 [T92] | 0.491 µM |
| 42 nM | 37 nM | C[C@H]1C(=O)C(C#N)=C[C@@]2(C)c3c(c(-c4ccccc4F)nn3-c3ccc(-c4ccncn4)cc3)CC[C@H]12 [T93] | 0.139 µM |
| 65 nM | 24 nM | Cc1nc(-c2ccc(-n3nc(-c4ccccc4F)c4c3[C@]3(C)C=C(C#N)C(=O)[C@H](C)[C@H]3CC4)cc2)no1 [T94] | 0.146 µM |
| 62 nM | 40 nM | Cc1noc(-c2ccc(-n3nc(-c4ccccc4F)c4c3[C@]3(C)C=C(C#N)C(=O)[C@H](C)[C@H]3CC4)cc2)n1 [T95] | 0.185 µM |
| 59 nM | 32 nM | Cc1noc(-c2nn(-c3ccc(-c4ccccc4)cc3)c3c2CC[C@@H]2[C@@H](C)C(=O)C(C#N)=C[C@@]32C)n1 [T96] | 0.258 µM |
| 107 nM | 38 nM | C[C@H]1C(=O)C(C#N)=C[C@@]2(C)c3c(c(-c4ccccc4)nn3-c3ccc(-c4ccccc4)cn3)CC[C@H]12 [T97] | 0.597 µM |
| 289 nM | 78 nM | C[C@H]1C(=O)C(C#N)=C[C@@]2(C)c3c(c(-c4ccncn4)nn3-c3nc4ccccc4s3)CC[C@H]12 [T98] | 0.275 µM |
| 449 nM | 87 nM | C[C@H]1C(=O)C(C#N)=C[C@@]2(C)c3c(c(-c4cccnc4)nn3-c3nc4ccccc4s3)CC[C@H]12 [T99] | 0.329 µM |
| 110 nM | 16 nM | C[C@H]1C(=O)C(C#N)=C[C@@]2(C)c3c(c(Nc4ccccc4)nn3-c3ccc(-c4ccccc4)cc3)CC[C@H]12 [T100] | 0.319 µM |
| 54 nM | 51 nM | C[C@H]1C(=O)C(C#N)=C[C@@]2(C)c3c(c(-c4ccncc4)nn3-c3ccc(-c4cncc(F)c4)cc3)CC[C@H]12 [T101] | 0.353 µM |
| 90 nM | 56 nM | Cc1cc(-c2ccc(-n3nc(-c4cccnc4)c4c3[C@]3(C)C=C(C#N)C(=O)[C@H](C)[C@H]3CC4)cc2)cnn1 [T102] | 0.918 µM |
| 47 nM | 31 nM | C[C@H]1C(=O)C(C#N)=C[C@@]2(C)c3c(c(-c4cccnc4)nn3-c3ccc(-c4cncc(F)c4)cc3)CC[C@H]12 [T103] | 0.365 µM |
| 208 nM | 62 nM | C[C@H]1C(=O)C(C#N)=C[C@@]2(C)c3c(c(-c4cccc(F)c4)nn3-c3ccnc4ccccc34)CC[C@H]12 [T104] | 0.638 µM |
| 67 nM | 21 nM | C[C@H]1C(=O)C(C#N)=C[C@@]2(C)c3c(c(-c4ccc(F)cc4)nn3-c3ccc(-c4cncc(F)c4)cc3)CC[C@H]12 [T105] | 0.361 µM |
| 83 nM | 27 nM | Cc1noc(-c2ccc(-n3nc(-c4ccc(F)cc4)c4c3[C@]3(C)C=C(C#N)C(=O)[C@H](C)[C@H]3CC4)cc2)n1 [T106] | 0.29 µM |
| 112 nM | 87 nM | Cc1noc(-c2ccc(-n3nc(-c4cccnc4)c4c3[C@]3(C)C=C(C#N)C(=O)[C@H](C)[C@H]3CC4)cc2)n1 [T107] | 0.505 µM |
| 154 nM | 223 nM | Cc1cc(-c2ccc(-n3nc(-c4nc(C)no4)c4c3[C@]3(C)C=C(C#N)C(=O)[C@H](C)[C@H]3CC4)cc2)cnn1 [T108] | 1.25 µM |
| 89 nM | 163 nM | Cc1noc(-c2nn(-c3ccc(-c4cccnc4)cc3)c3c2CC[C@@H]2[C@@H](C)C(=O)C(C#N)=C[C@@]32C)n1 [T109] | 0.543 µM |
| 193 nM | 126 nM | Cc1cc(-c2ccc(-n3nc(-c4noc(C)n4)c4c3[C@]3(C)C=C(C#N)C(=O)[C@H](C)[C@H]3CC4)cc2)cnn1 [T110] | 1.31 µM |
| 172 nM | 181 nM | C[C@H]1C(=O)C(C#N)=C[C@@]2(C)c3nc(C4CCCCC4)n(-c4ccccc4)c3CC[C@H]12 [T113] | > 1 µM |
| 106 nM | 507 nM | C[C@H]1C(=O)C(C#N)=C[C@@]2(C)c3nn(-c4ccc(Cl)cc4)c(-c4ccccc4)c3CC[C@H]12 [T114] | 0.894 µM |
| 77 nM | 287 nM | C[C@H]1C(=O)C(C#N)=C[C@@]2(C)c3nn(-c4ccccc4)c(-c4ccccc4)c3CC[C@H]12 [T115] | 0.466 µM |
